Assay results: patent publication US12643867B2, “Compositions and uses thereof” (University of Virginia Patent Foundation, priority 2017, dated 2026)

Key:
Test in all cases: SILAC LC-MS ATP acyl phosphate probe competition, native kinases in HEK293T
Assay type in all cases: binding
[1] = molecular target: T1, KS6B1 (Ribosomal protein S6 kinase 1, p70 S6 kinase alpha) (Homo sapiens, UniProt P23443); settings: site Lys2; ATP 1 mM; Ketanserin, Ritanserin 100 μM; RF001 1 mM
T1 construct: measured against >50 native kinases quantified in HEK293T soluble proteomes; endogenous in cells; host or cells: HEK293T soluble proteome
T1 sequence (P23443 whole entry): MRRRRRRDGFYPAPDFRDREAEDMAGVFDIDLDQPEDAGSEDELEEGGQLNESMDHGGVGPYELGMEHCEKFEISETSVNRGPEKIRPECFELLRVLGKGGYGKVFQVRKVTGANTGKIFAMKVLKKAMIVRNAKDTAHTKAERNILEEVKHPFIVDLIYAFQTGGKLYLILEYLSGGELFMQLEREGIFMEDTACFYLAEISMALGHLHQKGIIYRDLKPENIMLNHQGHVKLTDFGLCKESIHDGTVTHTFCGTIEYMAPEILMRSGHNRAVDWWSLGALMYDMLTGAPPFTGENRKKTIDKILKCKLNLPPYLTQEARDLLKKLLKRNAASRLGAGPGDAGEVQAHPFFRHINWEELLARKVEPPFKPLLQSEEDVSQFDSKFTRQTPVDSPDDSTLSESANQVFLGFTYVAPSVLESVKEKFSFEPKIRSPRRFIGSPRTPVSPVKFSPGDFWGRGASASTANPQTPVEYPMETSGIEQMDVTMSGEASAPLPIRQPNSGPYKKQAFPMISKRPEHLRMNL
Experimental: (§1) Proteomes were diluted to 2 mg/ml in kinase buffer. The light and heavy proteomes (0.5 mg, 250 μL total reaction volume) were pre-treated with vehicle or compound, respectively (5 μL, DMSO (light) or 50× stock in DMSO (heavy)), mixed gently, and incubated at 25° C. for 30 min. […] After incubation, matched light and heavy proteomes were transferred and mixed in a 1:1 ratio in a two-dram vial containing 4:1:3 MeOH/CHCl3/H2O (2 mL MeOH, 500 AL CHCl3, 1.5 mL H2O) for extraction of proteins to remove excess probe, quickly vortexed, and centrifuged at 1,400×g for 3 min to pellet protein. Organic and aqueous layers were removed using a Pasteur pipette, and the protein pellet was transferred to a screw-top tube in 600 μL MeOH. A second extraction was performed by adding CHCl3 (150 μL) and H2O (600 μL) to each sample, vortexed, and centrifuged at 1,400×g for 3 min to pellet protein. Organic and aqueous layers were removed by pipetting. MeOH added to pellet (600 μL) and pellets were re-suspended by sonication (3×1 sec pulse, 20% amplitude) for a final extraction. Samples were then centrifuged at 17,000×g for 5 min to pellet protein and MeOH was removed by pipetting. The pellets were re-suspended in 10 M urea/25 mM ammonium bicarbonate ([…]), brought to a final volume of 1 mL with 25 mM ammonium bicarbonate, reduced with 10 mM DTT for 15 min at 65° C. allowed to cool, and then alkylated with 40 mM iodoacetamide for 30 min at 25° C. in the dark. To desalt the samples, each was transferred to a two-dram glass vial, and to the vial 4:1:2 MeOH/CHCl3/H2O (2 mL MeOH, 500 AL CHCl3, 1 mL H2O) was added. The vials were vortexed quickly, spun at 1.400×g for 3 min to pellet protein, and aqueous and organic layers were removed using a Pasteur pipette. The resulting protein pellet was transferred to a screw-top tube in 600 μL MeOH, and then CHCl3 (150 μL) and HO (600 μL) were added to extract protein a second time. The samples were vortexed quickly, centrifuged at 1,400×g to pellet protein, and the aqueous and organic layers were removed by pipetting. Resulting protein pellet was suspended in MeOH (600 μL) via sonication (3×1 sec pulse, 20% amplitude), centrifuged at 17,000×g for 5 min to pellet protein, and MeOH removed by pipetting. Protein pellets were then re-suspended in 25 mM ammonium bicarbonate (500 μL) and digested with 7.5 μg Trypsin/Lys-C(Promega, 15 μL, 0.5 μg/μL) for 3 h at 37° C. Avidin-agarose beads (Thermo Scientific Pierce, 100 AL aliquot per sample) were washed three times by adding 10 mL DPBS, centrifuged at 1,400×g for 1 min, and decanting. This wash step was repeated for a total of 3 times. Digested protein samples were mixed with washed avidin beads (100 μL) and brought to a volume of 5.5 mL with DPBS in a 15 mL conical and rotated for 1 h to enrich samples for the covalent desthiobiotin modification. The beads were washed with 25 mM ammonium bicarbonate (3× with 10 mL, centrifuge at 1,400×g for 3 min, decant) and then H2O (3× with 10 mL, centrifuge at 1,400×g for 3 min, decant). Washed beads were then transferred to a low-bind microfuge tube, centrifuged at 1,400×g for 3 min, allowed to rest for 1 min to settle beads, and then excess H2O was removed carefully using a gel-loading pipette tip. To elute peptides, 100 μL of elution buffer (50% acetonitrile, ACN; 0.1% formic acid) was added to each sample and incubated for 3 min. Beads were spun down at 1.400×g for 3 min, allowed to rest for 1 min to settle beads, and then 75 μL of peptide-containing supernatant was removed carefully using a gel-loading pipette tip and transferred to a new low bind centrifuge tube. This step was repeated two more times with 75 μL of elution buffer and all eluent were collected into the same centrifuge tube (˜225 μL total). Peptides were dried on a speed vacuum, resulting peptide samples acidified in 5% (v/v) formic acid, and stored at −80° C. until analysis.
(§2) The peptide samples were analyzed by liquid chromatography-mass spectrometry. […]

[2] = molecular target: T2, KCC2D (Calcium/calmodulin-dependent protein kinase type II delta chain) (Homo sapiens, UniProt Q13557); settings: site Lys1; ATP 1 mM; Ketanserin, Ritanserin 100 μM; RF001 1 mM
T2 construct: measured against >50 native kinases quantified in HEK293T soluble proteomes; endogenous in cells; host or cells: HEK293T soluble proteome
T2 sequence (Q13557 whole entry): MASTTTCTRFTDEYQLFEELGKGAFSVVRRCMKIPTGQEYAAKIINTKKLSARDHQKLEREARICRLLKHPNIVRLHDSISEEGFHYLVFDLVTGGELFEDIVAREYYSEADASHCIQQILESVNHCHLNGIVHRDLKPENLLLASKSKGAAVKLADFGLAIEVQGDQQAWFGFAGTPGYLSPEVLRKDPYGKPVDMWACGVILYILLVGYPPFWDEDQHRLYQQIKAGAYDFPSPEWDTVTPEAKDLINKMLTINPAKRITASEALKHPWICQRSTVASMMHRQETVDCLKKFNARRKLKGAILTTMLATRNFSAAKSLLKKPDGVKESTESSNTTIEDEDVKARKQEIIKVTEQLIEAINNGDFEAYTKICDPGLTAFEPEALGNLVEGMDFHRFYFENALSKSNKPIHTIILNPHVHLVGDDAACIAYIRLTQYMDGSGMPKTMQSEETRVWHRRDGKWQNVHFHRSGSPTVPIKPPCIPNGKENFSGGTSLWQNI
Experimental: as §1, §2

[3] = molecular target: T3, ULK3 (Unc-51-like kinase 3) (Homo sapiens, UniProt Q6PHR2); settings: site Lys1; ATP 1 mM; Ketanserin, Ritanserin 100 μM; RF001 1 mM
T3 construct: Native kinases; endogenous in cells; host or cells: HEK293T soluble proteome
T3 sequence (Q6PHR2 1-472): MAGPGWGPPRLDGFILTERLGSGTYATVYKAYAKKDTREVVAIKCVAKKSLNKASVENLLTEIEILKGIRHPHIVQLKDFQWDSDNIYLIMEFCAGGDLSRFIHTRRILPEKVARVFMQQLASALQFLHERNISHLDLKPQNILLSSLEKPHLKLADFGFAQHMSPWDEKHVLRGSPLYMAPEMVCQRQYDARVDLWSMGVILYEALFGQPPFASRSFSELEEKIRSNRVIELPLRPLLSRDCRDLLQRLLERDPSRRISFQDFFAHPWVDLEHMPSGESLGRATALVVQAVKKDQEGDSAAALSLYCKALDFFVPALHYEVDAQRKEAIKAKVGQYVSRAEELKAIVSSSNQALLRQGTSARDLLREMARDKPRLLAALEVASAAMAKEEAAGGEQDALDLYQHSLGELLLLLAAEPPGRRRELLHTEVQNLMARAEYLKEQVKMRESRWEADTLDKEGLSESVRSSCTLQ
Experimental: as §1, §2

[4] = molecular target: T4, M4K5 (Mitogen-activated protein kinase kinase kinase kinase 5) (Homo sapiens, UniProt Q9Y4K4); settings: ATP 1 mM, Ketanserin, Ritanserin 100 μM, RF001 1 mM; for SILAC ratio, M4K5 Lys1 probe-modified peptide: site Lys1; for SILAC ratio, M4K5 Lys2 probe-modified peptide: site Lys2
T4 construct: Native kinases; endogenous in cells; host or cells: HEK293T soluble proteome
T4 sequence (Q9Y4K4 whole entry): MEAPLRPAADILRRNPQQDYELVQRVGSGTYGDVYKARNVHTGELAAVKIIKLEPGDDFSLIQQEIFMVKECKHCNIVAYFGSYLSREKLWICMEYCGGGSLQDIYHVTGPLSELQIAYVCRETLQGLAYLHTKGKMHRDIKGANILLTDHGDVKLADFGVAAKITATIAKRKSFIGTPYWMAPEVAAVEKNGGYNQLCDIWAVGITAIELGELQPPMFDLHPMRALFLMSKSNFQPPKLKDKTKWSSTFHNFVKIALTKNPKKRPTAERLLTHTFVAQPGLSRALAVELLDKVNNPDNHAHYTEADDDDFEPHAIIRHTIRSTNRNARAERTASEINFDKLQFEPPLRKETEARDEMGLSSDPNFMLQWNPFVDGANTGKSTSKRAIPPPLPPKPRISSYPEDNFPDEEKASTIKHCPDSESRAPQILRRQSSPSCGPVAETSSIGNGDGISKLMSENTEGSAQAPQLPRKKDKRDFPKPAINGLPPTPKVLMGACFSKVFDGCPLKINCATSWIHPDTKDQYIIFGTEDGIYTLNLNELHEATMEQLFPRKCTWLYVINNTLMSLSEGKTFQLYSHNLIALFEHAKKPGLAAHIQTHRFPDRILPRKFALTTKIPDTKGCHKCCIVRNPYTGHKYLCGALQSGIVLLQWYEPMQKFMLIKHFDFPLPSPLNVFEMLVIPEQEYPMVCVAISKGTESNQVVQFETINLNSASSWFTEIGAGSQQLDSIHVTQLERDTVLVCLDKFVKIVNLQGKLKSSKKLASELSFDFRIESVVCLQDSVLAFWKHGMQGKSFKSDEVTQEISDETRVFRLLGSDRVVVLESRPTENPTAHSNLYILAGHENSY
Experimental: as §1, §2

| SMILES | SILAC ratio, KS6B1 probe-modified peptide [1] | SILAC ratio, KCC2D probe-modified peptide [2] | SILAC ratio, ULK3 probe-modified peptide [3] | SILAC ratio, M4K5 Lys1 probe-modified peptide [4] | SILAC ratio, M4K5 Lys2 probe-modified peptide [4] |
| --- | --- | --- | --- | --- | --- |
| O=C(c1ccc(F)cc1)C1CCN(CCn2c(=O)[nH]c3ccccc3c2=O)CC1 [Ketanserin] | 1.2 | 1.5 | 2.3 | 1.3 | 1.3 |
| Cc1nc2sccn2c(=O)c1CCN1CCC(=C(c2ccc(F)cc2)c2ccc(F)cc2)CC1 [Ritanserin] | 1.3 | 2.3 | 1.8 | 2.4 | 1.9 |
| Fc1ccc(C(=C2CCNCC2)c2ccc(F)cc2)cc1 [RF001, 4-(Bis(4-fluorophenyl)methylene) piperidine] | 1.0 | 1.2 | 1.4 | 0.9 | 1.3 |
